Experiment: in vitro
Conditions: human, hela cells, % viability

SMILES | viability at 28.5 h, 10 µM [%] | viability at 28.5 h, 10 µM (bulk resorufin, single well) [%]
O=C(Nc1nc(-c2ccncc2)cs1)C1COc2ccccc2O1 (centres unmarked) [CBK287370] | 96.7 | –
CCN(CC)C(=O)c1[nH]c2ccccc2c1NS(=O)(=O)c1c(C)noc1C [CBK050117] | 89.1 | –
CCc1ccc(CC)c(S(=O)(=O)NC(CC(=O)O)c2ccccc2)c1 (centres unmarked) [CBK266208] | 102 | –
COC(=O)/C=C/c1cn(C2OC(CO)C(O)C2O)c(=O)[nH]c1=O (centres unmarked) [CBK201339] | 106 | –
CSc1ccc(-c2cnc(N)c(-c3ccc(C(=O)N4CCOCC4)cc3)n2)cc1 [CBK084539] | 109 | –
Cc1ncccc1COC(=O)Nc1cnc2ccccc2c1 [CBK200128] | 95.9 | –
CCCc1c(C(=O)NCCCN(C)C)cnn1-c1cc(Cl)cc(Cl)c1 [CBK107376] | 89.3 | –
Fc1ccccc1-c1cn2ccnc2c(NCCc2cccnc2)n1 [CBK037473] | 88.1 | –
Cc1cccc2sc(NC(=O)c3ccccc3)nc12 [CBK287300] | 102 | –
COCCCn1c(N)c(C(=O)NCC(C)C)c2nc3ccccc3nc21 [CBK126495] | 84.9 | –
CN1CCC(N(C)C/C(Cl)=C/c2ccccc2)CC1 [CBK261903] | 92.1 | –
CC(=O)NC(c1ccccn1)C1CCCN(C(=O)C2CCCCC2)C1 (centres unmarked) [CBK285031] | 109 | –
COc1cccc2ncn(Cc3n[nH]c(C)n3)c(=O)c12 [CBK306938] | 89.7 | –
CCOC(=O)c1cnc2ccc(Cl)cc2c1N1CCOCC1 [CBK307627] | 99.2 | –
O=C(O)Cc1ccc(NC(=O)CN2C(=O)c3ccccc3C2=O)cc1 [CBK268562] | 104 | –
COc1cccc2c1OCCC2CNCCCc1ccccc1 (centres unmarked) [CBK007716] | – | 91.8
Cc1ccc(CS(=O)(=O)N2CCC3(CC2)CNC(=O)C3)cc1 [CBK283344] | 88.5 | –
O=C(Cn1cc(C(=O)COc2ccccc2)c2ccccc21)Nc1ccccc1 [CBK267653] | 110 | –
N#CCCCCn1cc(NC(=O)NCCc2cccs2)cn1 [CBK044855] | 100 | –
O=C(Nc1ccc2oc(-c3cccnc3)nc2c1)c1ccc(-c2ccc(OC(F)(F)F)cc2)o1 [CBK107713] | 101 | –
O=C(CSCc1nc2ccccc2[nH]1)Nc1cccc(C(F)(F)F)c1 [CBK268474] | 101 | –
O=C1NN(c2cccc(Cl)c2)C(=O)/C1=C\c1ccc(-c2ccc3c(c2)C(=O)NC3=O)o1 [CBK262970] | 93.4 | –

SMILES | viability at 28.5 h, 10 µM [%] | viability at 28.5 h, 10 µM (bulk resorufin, single well) [%]
Cc1c(CN2CCC(N(C)CCN(C)C)CC2)oc2ccccc12 [CBK282038] | 86.1 | –
C=CCn1c(SCC(=O)Nc2nc3ccc(OCC)cc3s2)nc2cc(C(=O)O)ccc2c1=O [CBK297520] | 113 | –
COc1ccc(CCC(=O)Nc2cc(N3CCNCC3)ncn2)cc1 [CBK004231T] | 92.1 | –
OC1CSc2nc(-c3cnccn3)nn2C1 (centres unmarked) [CBK027096] | 97.8 | –
O=C(O)C(c1c[nH]c2cc(F)ccc12)N1CCN(c2ccccc2)CC1 (centres unmarked) [CBK286675] | 102 | –
CN1CCN(c2nc3c(c(=O)n(C)c(=O)n3C)n2CCSc2nc3ccccc3o2)CC1 [CBK269452] | 90 | –
Cc1nc2c(C(=O)NCC(F)(F)F)cnn2c(C)c1Cc1ccccc1 [CBK162208] | 94.8 | –
O=C(Cn1cnnn1)NCc1ccccc1 [CBK200255] | 83.6 | –
CCc1ccc(CNC(=O)Cn2nnc(-c3ccc(CNC4CCC4)cc3)n2)cc1 [CBK155006T] | 111 | –
CCCS(=O)(=O)Nc1cccc2[nH]ccc12 [CBK159488] | 97.5 | –
CC(C)(C)c1ccnc(N[C@H]2CO[C@H]3[C@@H]2OC[C@@H]3NCc2ccccn2)n1 [CBK289524] | 86.6 | –
Cc1cc2ccccc2n2c(SCC(=O)NCCc3ccccc3)nnc12 [CBK265682] | 111 | –
CC(C)Nc1nc2cc(Cl)c(Cl)cc2nc1Sc1nc[nH]n1 [CBK115261] | 93.3 | –
O=c1c2c3c(sc2ncn1Cc1nn[nH]n1)CCCC3 [CBK269808] | 83.9 | –
CCCC/C=C/c1cnc(N)c(Nc2ccc(OC)cc2C)n1 [CBK064090] | 101 | –
Cc1cc(NC(=O)c2c(F)cccc2F)c2ccccc2n1 [CBK122737] | 92.7 | –
CCCc1ccc(S(=O)(=O)Nc2cccc(C(=O)N3CCN(C)CC3)c2)cc1 [CBK039034] | 122 | –
COc1ccc(S(=O)(=O)NC(C)C(=O)NCc2ccccn2)cc1Cl (centres unmarked) [CBK269275] | 101 | –
CCN(CC(=O)NCc1cccnc1)S(=O)(=O)c1ccc2ccccc2c1 [CBK300514] | 108 | –
Cc1noc2nc(-c3ccco3)cc(C(=O)N(C)CCOc3ccccc3)c12 [CBK295623] | 90.1 | –
O=C(N[C@H]1CCN(Cc2ccccc2)C1)c1cnc(-c2ccccc2)c(-c2ccncc2)c1 [CBK036639] | 84.7 | –
Cc1cc(NC(=O)CCN2CCCCC2)no1 [CBK017079] | 99 | –
